Data: ChEMBL document CHEMBL1201862, “PubChem BioAssay data set” (2004)
Calls of active or inactive are those of the source.

Key:
[1] = viability loss in HeLa cells – cytotoxicity control for MgcRacGAP inhibitor project, dose response (AID 624300); assay type: functional
Protein RecA = target: T1, Protein RecA (Mycobacterium tuberculosis, UniProt P9WHJ3); assay: Fluorescence Cell-Free Homogeneous Dose Retest to Identify Inhibitors of RecA-Intein Splicing Activity. [Related pubchem assays (depositor defined):AID2097, AID2223, AID489010, AID492950]; assay type: functional
T1 sequence (P9WHJ3 whole entry): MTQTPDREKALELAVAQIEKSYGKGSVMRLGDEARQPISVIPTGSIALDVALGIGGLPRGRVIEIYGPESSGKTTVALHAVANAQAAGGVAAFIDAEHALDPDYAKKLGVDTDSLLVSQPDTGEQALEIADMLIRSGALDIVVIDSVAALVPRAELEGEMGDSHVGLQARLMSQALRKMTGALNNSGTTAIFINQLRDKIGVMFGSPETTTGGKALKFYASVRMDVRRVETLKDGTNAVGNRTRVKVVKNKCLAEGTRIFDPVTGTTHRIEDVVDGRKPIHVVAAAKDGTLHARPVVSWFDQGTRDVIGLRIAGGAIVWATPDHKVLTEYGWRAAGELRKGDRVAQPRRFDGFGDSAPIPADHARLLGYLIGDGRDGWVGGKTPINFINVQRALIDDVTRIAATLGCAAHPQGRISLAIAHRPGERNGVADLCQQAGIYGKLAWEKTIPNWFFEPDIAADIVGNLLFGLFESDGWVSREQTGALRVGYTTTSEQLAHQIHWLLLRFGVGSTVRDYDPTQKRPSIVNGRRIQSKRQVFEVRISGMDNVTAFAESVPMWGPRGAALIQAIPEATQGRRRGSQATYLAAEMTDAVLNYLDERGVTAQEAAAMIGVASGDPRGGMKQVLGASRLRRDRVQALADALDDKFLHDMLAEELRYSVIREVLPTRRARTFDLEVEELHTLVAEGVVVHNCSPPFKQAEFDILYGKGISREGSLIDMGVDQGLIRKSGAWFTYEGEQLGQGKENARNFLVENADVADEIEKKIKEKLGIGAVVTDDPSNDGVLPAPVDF

[2] = target: T2, Replicative DNA helicase DnaB (Mycobacterium tuberculosis, UniProt P9WMR3); assay: DnaB intein splicing inhibitors, dose response, biochemical, cell-free fluorescence (AID 449749); assay type: functional
T2 sequence (P9WMR3 whole entry): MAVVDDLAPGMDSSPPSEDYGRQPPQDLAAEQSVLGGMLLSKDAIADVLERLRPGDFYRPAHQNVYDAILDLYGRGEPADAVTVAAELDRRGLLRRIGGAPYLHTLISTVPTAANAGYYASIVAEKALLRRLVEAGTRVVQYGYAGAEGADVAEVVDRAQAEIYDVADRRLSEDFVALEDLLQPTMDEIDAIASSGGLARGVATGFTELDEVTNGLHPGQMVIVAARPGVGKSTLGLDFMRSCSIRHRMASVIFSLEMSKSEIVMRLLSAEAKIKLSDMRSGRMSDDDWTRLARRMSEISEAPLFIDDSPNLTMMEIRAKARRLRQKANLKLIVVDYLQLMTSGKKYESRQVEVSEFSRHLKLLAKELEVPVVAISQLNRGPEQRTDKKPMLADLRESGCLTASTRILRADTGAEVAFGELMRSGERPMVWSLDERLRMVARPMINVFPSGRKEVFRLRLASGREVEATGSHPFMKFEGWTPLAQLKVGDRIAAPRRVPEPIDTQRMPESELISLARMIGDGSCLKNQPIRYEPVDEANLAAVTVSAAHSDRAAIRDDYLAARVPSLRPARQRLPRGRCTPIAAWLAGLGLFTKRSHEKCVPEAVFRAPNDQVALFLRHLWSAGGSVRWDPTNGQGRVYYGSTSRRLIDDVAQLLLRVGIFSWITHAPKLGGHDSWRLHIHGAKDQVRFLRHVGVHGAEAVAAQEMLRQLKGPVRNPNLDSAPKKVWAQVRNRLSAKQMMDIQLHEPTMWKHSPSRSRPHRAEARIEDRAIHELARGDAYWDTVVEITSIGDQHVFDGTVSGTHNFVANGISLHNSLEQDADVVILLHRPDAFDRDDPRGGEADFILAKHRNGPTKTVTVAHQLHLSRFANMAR

[3] = target: Dual specificity tyrosine-phosphorylation-regulated kinase 1A (Rattus norvegicus, UniProt Q63470); assay type: biochemical, Homo sapiens
[4] = target: T3, Rac GTPase-activating protein 1 (Homo sapiens, UniProt Q9H0H5); assay: blockers of MgcRacGAP-driven Rac1 GTP hydrolysis – biochemical, ADP Hunter fluorescence, primary and confirmatory, confirmation (AID 624330); assay type: functional
T3 sequence (Q9H0H5 whole entry): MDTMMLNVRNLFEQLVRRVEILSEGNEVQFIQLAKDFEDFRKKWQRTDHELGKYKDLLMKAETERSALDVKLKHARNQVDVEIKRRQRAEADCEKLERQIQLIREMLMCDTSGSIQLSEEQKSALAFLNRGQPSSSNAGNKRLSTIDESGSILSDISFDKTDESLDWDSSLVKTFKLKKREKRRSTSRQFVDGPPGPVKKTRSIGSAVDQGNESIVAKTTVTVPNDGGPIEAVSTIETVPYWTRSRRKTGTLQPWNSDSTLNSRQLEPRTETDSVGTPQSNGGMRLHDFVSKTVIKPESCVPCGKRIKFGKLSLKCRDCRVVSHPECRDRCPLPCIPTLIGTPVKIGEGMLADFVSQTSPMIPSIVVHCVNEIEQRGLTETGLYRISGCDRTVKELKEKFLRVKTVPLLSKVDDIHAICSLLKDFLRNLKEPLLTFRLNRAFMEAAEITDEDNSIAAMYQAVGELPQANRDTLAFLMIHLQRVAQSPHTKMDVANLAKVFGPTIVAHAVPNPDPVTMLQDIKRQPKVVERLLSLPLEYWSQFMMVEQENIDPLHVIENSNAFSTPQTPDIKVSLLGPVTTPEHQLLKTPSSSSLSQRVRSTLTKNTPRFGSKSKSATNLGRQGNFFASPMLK

[5] = mouse fibroblast viability loss – cell-based, cherry-pick samples, set 2, cytotoxicity control for T. cruzi growth inhibitor project, dose response (AID 651817); assay type: functional; conditions: NIH3T3
Vero [6] = assay: cells; assay type: functional; conditions: Chlorocebus sabaeus
[7] = loss of viability in HepG2 cells – cell-based, CellTiter-Glo, cherry-picked, cytotoxicity control for Shn3 inhibitor project, dose response (AID 624134); assay type: functional
[8] = Luminescence Cell-Based Dose Confirmation HTS to Identify Activators of 5'UTR Stem-Loop Driven Alpha-Synuclein mRNA Translation in H4 Neuroglioblastoma Cells. [Related pubchem assays: 1829 (Project Summary), 1814 (Primary HTS)]; assay type: functional
H4 = assay: Luminescence Cell-Based Dose Response HTS to Identify Activators of 5'UTR Stem-Loop Driven Prion Protein mRNA Translation in H4 Neuroglioblastoma Cells. [Related pubchem assays: 1829 (Project Summary), 1814 (Primary HTS)]; assay type: functional; conditions: Homo sapiens
[9] = Luminescence Cell-Based Dose Response HTS to Identify Activators of Luciferase Translation or Activity in H4 […] Cells. [Related pubchem assays: 1829 (Project Summary), 1814 (Primary HTS)]; assay type: functional
[10] = non-specific 3'UTR reporter inhibition in Clone20-Shn3RL – cell-based, Renilla luciferase, cherry-picked, counter-screen for Shn3 inhibitor project, dose response (AID 624133); assay type: functional
INS1 = assay: INS-1E survival protection against cytokine death – cell-based, luminescence, retest, dose response (AID 449756); assay type: functional; conditions: Rattus norvegicus;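 also: cell death triggered by IL-1 beta plus TNF-alpha plus IFN-gamma mixture; protective hits raise ATP signal compared with cytokine alone wells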
Vero [11] = assay: cells; assay type: functional, cell-based; conditions: Chlorocebus sabaeus
Interleukin-8 [12] = target: T4, Interleukin-8 (Homo sapiens, UniProt P10145); assay: Dose Response confirmation of uHTS small molecule hits for cystic fibrosis induced NFkb Inhibitors in a PAF-induced IL8 counterscreen.; assay type: functional; conditions: read-out: IC50_Mean
T4 sequence (P10145 whole entry): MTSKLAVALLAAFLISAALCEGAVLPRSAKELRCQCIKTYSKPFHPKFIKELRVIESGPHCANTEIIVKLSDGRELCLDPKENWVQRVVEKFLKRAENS

[13] = reduction of Shn3 3'UTR-driven luciferase in osteoblasts – cell-based, Clone20 osteoblasts, firefly luciferase, cherry-picked, dose response (AID 624132); assay type: functional;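 also: firefly luciferase luminescence from reporter carrying the Shn3 3'UTR in osteoblasts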
Interleukin-8 [14] = target: T4, Interleukin-8; assay: Dose Response confirmation of uHTS small molecule hits for cystic fibrosis induced NFkb Inhibitors in a TNFa-induced IL8 counterscreen.; assay type: functional; conditions: read-out: IC50_Mean
Mu-type opioid receptor = Mu-type opioid receptor (Homo sapiens, UniProt P35372); assay: (§1) Counterscreen for agonists of heterodimerization of the mu 1 (OPRM1) and delta 1 (OPRD1) opioid receptors: Luminescence-based cell-based high throughput dose response assay to identify agonists of OPRM1 homodimerization.; assay type: functional
Sequence of Mu-type opioid receptor (P35372 whole entry): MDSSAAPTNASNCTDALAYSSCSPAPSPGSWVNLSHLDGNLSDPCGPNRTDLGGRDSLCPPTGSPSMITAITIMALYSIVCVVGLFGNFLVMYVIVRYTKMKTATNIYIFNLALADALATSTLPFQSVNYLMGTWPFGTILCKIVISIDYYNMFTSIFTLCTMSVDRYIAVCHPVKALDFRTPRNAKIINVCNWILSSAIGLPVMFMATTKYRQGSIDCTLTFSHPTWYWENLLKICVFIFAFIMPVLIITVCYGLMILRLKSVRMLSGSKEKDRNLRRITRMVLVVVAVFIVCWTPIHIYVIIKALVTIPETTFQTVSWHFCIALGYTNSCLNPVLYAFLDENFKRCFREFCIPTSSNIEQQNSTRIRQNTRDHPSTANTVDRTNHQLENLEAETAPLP

[15] = target: Delta-type opioid receptor (Homo sapiens, UniProt P41143); assay: as §1, with “of OPRD1” for “of OPRM1”, “homodimerization. [Related pubchem assays (depositor defined):AID504326, AID504355, AID504692, AID504904, AID504905]” for “homodimerization.”; assay type: functional
Sequence of Delta-type opioid receptor (P41143 whole entry): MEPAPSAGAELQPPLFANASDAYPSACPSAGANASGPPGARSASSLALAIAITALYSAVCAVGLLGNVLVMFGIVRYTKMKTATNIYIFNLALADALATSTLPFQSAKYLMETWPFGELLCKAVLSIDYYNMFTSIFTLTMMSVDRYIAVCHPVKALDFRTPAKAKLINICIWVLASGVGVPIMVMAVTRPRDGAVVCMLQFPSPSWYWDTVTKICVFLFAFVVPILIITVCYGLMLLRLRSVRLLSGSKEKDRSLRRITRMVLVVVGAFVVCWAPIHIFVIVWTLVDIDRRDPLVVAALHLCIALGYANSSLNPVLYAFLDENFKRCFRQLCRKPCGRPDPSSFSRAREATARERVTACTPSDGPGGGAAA

[16] = target: 5-hydroxytryptamine receptor 5A (Homo sapiens, UniProt P47898); assay: Counterscreen for agonists of OPRM1-OPRD1 heterodimerization: luminescence-based cell-based high throughput dose response assay to identify agonists of 5-hydroxytryptamine (serotonin) 5A receptor (HTR5A). [Related pubchem assays (depositor defined):AID504326, AID504355, AID504692, AID504904, AID504905]; assay type: functional
Sequence of 5-hydroxytryptamine receptor 5A (P47898 whole entry): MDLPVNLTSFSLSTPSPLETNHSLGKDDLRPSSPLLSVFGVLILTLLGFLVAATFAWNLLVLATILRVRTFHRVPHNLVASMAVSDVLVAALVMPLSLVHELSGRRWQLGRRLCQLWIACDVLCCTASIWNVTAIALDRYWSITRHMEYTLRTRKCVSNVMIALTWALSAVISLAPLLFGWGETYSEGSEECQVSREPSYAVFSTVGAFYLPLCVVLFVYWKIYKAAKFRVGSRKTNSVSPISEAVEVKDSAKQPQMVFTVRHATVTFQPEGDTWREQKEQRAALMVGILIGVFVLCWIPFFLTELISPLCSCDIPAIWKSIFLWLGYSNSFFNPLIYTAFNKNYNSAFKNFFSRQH

Melanocortin receptor 4 [17] = target: T5, Melanocortin receptor 4 (Homo sapiens, UniProt P32245); assay type: functional, cell-based;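 also: Cell-based assay with luminescence read-out, confirmatory dose-response testing for agonist activity of biased ligands at MC4R; human U2OS cells with tagged receptor and beta-arrestin; potency of agonists that increase receptor coupling to beta-arrestin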
T5 sequence (P32245 whole entry): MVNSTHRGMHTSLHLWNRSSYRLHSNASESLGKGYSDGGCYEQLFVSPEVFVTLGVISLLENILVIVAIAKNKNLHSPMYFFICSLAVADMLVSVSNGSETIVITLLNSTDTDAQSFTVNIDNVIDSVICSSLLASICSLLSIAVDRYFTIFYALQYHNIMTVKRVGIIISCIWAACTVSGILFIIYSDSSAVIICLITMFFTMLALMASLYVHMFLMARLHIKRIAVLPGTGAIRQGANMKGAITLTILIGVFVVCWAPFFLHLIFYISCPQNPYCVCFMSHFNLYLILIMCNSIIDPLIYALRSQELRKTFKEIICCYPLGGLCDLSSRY

[18] = DRD fibroblast viability loss – cell-based, non-viral oncogenic, luminescence, dose response (AID 1934); assay type: functional; conditions: Homo sapiens
BJ [19] = assay: BJ-TERT fibroblast viability loss – cell-based, RAS-independent, luminescence, dose response (AID 1933); assay type: functional; conditions: Homo sapiens
BJ [20] = assay: BJ-TERT-LT-ST fibroblast viability loss – cell-based, RAS-independent, luminescence, dose response (AID 1935); assay type: functional; conditions: Homo sapiens;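 also: BJ fibroblasts immortalized with TERT plus LT and ST oncogenes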
BJ [21] = assay: cells; assay type: functional, cell-based; conditions: Homo sapiens
Melanocortin receptor 4 [22] = target: T5, Melanocortin receptor 4; assay: inhibitors of MC4R cAMP signaling – cell-based, TR-FRET, biased antagonists, dose response (AID 602298); assay type: functional;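 also: antagonist potency against agonist-stimulated cAMP production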
[23] = cAMP pathway inhibition in counterscreen cell line – TR-FRET cAMP detection, counter-screen for MC4R biased antagonist project, dose response (AID 602305); assay type: functional, cell-based;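 also: U2OS cells stimulated with forskolin near its EC80 as the cAMP inducer; potency is for inhibition of forskolin-stimulated cAMP signaling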

Oc1ccc(NC(=S)N=Nc2c(O)[nH]c3ccc(Br)cc23)cc1
CC50 [1]: 61.5 µM (active) | EC50 (Protein RecA): 13.7 µM (active) | AC50 [2]: 12.1 µM (active) | AC50 [3]: 1.2 µM (active) | IC50 [4]: 152 µM (active)

Cc1ccc(S(=O)(=O)Nc2ccc3c(c2)CC(=O)N([C@@H](C)CO)C[C@@H](C)[C@H](CN(C)Cc2ccccc2)O3)cc1
AC50 [5]: 39 µM (inactive)

C=CCSc1nc2ccccc2n1C(=O)/C=C/c1ccc(OC)c(OC)c1
CC50 (Vero [6]): 9.91 µM (active) | AC50 [7]: 49.4 µM (active) | EC50 [8]: > 120 µM (not active) | EC50 (H4): > 120 µM (not active) | EC50 [9]: > 120 µM (not active) | AC50 [10]: 12.5 µM (active) | AC50 (INS1): 8.85 µM (active) | IC50 (Vero [11]): > 25 µM (active) | IC50 (Interleukin-8 [12]): 685 nM (active) | AC50 [13]: 1.31 µM (active) | IC50 (Interleukin-8 [14]): > 79 µM (inactive)

CSCCC(/C(O)=C(\C#N)c1nc2ccccc2[nH]1)N1C(=O)c2ccccc2C1=O (stereo not given)
EC50 (Mu-type opioid receptor): > 92.4 µM (inactive) | EC50 [15]: > 92.4 µM (inactive) | EC50 [16]: > 92.4 µM (inactive)

CC(=O)Nc1cc(-c2cccc(F)c2)cn2c(-c3ccc(F)cc3)cnc12
EC50 (Melanocortin receptor 4 [17]): > 89.2 µM (inactive)

CCc1ccc2nc(N(CCCN(C)C)C(=O)c3ccc(S(=O)(=O)N(C)C4CCCCC4)cc3)sc2c1
EC50 [18]: 7.91 µM (active) | EC50 (Mu-type opioid receptor): > 92.5 µM (inactive) | EC50 [15]: > 92.5 µM (inactive) | EC50 (BJ [19]): 6.21 µM (inconclusive) | EC50 (BJ [20]): 7.58 µM (active) | EC50 [16]: > 92.5 µM (inactive) | EC50 (BJ [21]): 13.4 µM (active)

CCOC(=O)c1c(NC(=O)C2c3ccccc3Oc3ccccc32)sc(C(N)=O)c1C
IC50 (Melanocortin receptor 4 [22]): > 21.5 µM (inactive) | IC50 [23]: 32.5 µM (inactive)
